Common to all, as to type: cell-based, human
For test [1], the system named is ASPA in OG33 cells. Description: Western blot of ASPA expression. The conditions noted are these: NAA and NAAG treatment (not shown). As for the experimental part: SDS-PAGE (25 μg protein from whole cell lysates) and western blotting were performed as previously described (Lluri et al. 2008 Exp Cell Res 314:11-24). Cytosol and nuclear fractions were isolated according to standard protocols. Antibodies: rabbit anti-mouse ASPA (2,000×), (Madhavarao et al. 2004 Comp Neurol 472:318-29) rabbit anti-human ASPA (5,000×; GTX1338; GeneTex, Irvine, Calif.), goat anti-human actin (1,000×, sc-1616, Santa Cruz Biotechnology, Santa Cruz, Calif.), rabbit anti-human GAPDH (5,000×, sc-25778, Santa Cruz Biotechnology, Santa Cruz, Calif.), mouse anti-human histone H1 (250×, sc-8030; Santa Cruz Biotechnology, Santa Cruz, Calif.). Species-specific HRP—(3,000×) conjugated secondary antibodies were obtained from Jackson ImmunoResearch (West Grove, Pa.). Immunocomplexes were visualized by enhanced chemiluminescence (PerkinElmer Life Sciences; Boston, Mass.) and densitometry performed using Quantity One software (Bio-Rad; Hercules, Calif.).
SDS-PAGE (25 μg protein from whole cell lysates) and western blotting were performed as previously described in Example 1.
A general note: Immunoblotting shows a protein as a band on a membrane.

The subject of test [2] is OG33 oligodendroglioma stem cells. Description: Cell cycle profile by propidium iodide staining and flow cytometry. The following applies: 100 μM NAA or 10 μM NAAG. As to the method:
(§1) Cell cycle profiles were visualized by propidium iodide (PI) staining as previously described (Perez-Martinez & Jaworski (2005) J Neurosci 25:4917-29). OG35, OG33 and mouse neural stem cells were grown in stem cell medium (SCM; DMEM/F12, B27, 20 ng/ml ea bFGF & EGF) while the oligodendrocyte progenitor cell line, Oli-neu (Jung et al. (1995) Eur J Neurosci 7:1245-65) was grown in Sato's medium (DMEM supplemented with 100 μg/ml apotransferrin, 5 μg/ml insulin, 60 nM triiodothyronine, 30 nM sodium selenite, 100 μM putrescine, 1% horse serum, and 25 μg/ml G418). […] after 0.25% (v/v) GTA treatment, cells were trypsinized, recovered by centrifugation, re-suspended (10^6 cells/ml) in a low-salt PI solution ([…] polyethylene glycol PEG 8000, […], 180 U/ml RNase A, 0.1% Triton X-100, and 4 mM sodium citrate), and incubated at 37° C. for 20 minutes. After addition of an equal volume of high-salt PI solution ([…] polyethylene glycol PEG 8000, […], 180 U/ml RNase A, 0.1% Triton X-100, and 400 mM NaCl) and incubation at 4° C. for 1 hour, cell cycle profiles were recorded by flow cytometry (BD LSR 11 Flow Cytometer, BD Biosciences; Franklin Lakes, N.J.).
(In general: A flow cytometer gives signals particle by particle.)

In test [3] the test system is ASPA in OG35 cells. Description: Immunocytochemistry of ASPA localization after NAA or NAAG. The following applies: 100 μM NAA or 10 μM NAAG; 5 days in DM; OG35 (primarily nuclear). As to the method:
(§2) Immunocytochemistry was performed as described (Perez-Martinez & Jaworski (2005) J Neurosci 25:4917-29). Briefly, OG33 and OG35 cells were plated into differentiaion medium (DMEM, 10% FBS), fixed with 2% paraformaldehyde, and ASPA expression localized immunocytochemically using rabbit anti-mouse ASPA (1,500×) (Madhavarao et al., 2004 Comp Neurol 472:318-29) and Cy-3 conjugated secondary antibody (500×; Jackson ImmunoResearch, West Grove, Pa.).

The subject of test [4] is ASPA in OG33 cells. Described as above. The following applies: 100 μM NAA or 10 μM NAAG; 5 days in DM; OG33 (cytosolic). As to the method:
as §2

Test [5] concerns OG33 oligodendroglioma stem cells. Description: Growth dynamics, trypan blue exclusion and manual counting. The conditions noted are these: 100 μM NAA or 10 μM NAAG; SCM and DM; later time points up to 5 days. As to the method:
(§3) Stem cell spheres from two oligodendroglioma stem cell lines (OG33 and OG35) were plated (at 10,000 cells per well of a 24-well plate) in the absence or presence of 100 μM N-acetylaspartate (NAA) or 10 μM N-acetylaspartylglutamate (NAAG) in stem cell medium (SCM) containing DMEM/F12 (Gibco/Life Technologies, Grand Island, N.Y.), B27 supplement (Gibco/Life Technologies, Grand Island, N.Y.), and 20 ng/ml each basic fibroblast growth factor (bFGF) and epidermal growth factor (EGF), or differentiation medium (DM) containing DMEM, 10% FBS. Medium, with fresh drug, was replenished every 48 hours. Growth dynamics were assessed using trypan blue exclusion and manual counting 1, 3, and 5 days after plating.

For test [6], the system named is OG35 oligodendroglioma stem cells. Described as above. The following applies: 100 μM NAA or 10 μM NAAG; stem cell medium (SCM) and differentiation medium (DM); later time points up to 5 days. As for the experimental part:
as §3

For test [7] the test system is unchanged. As to the kind of experiment: Cell cycle profile by propidium iodide staining and flow cytometry. The conditions noted are these: 100 μM NAA or 10 μM NAAG. As to the method:
as §1

Peptide text beside a SMILES is read from it.

As to `CC(=O)N[C@@H](CC(=O)O)C(=O)O` [NAA, N-acetylaspartate], the “Expression of novel 26 kDa ASPA species” value in test [1] was “induced”. The “OG33 cell number by flow cytometric cell cycle analysis” value in test [2] is “no significant change”. The ASPA spatial localization entry in test [3] and in test [4] was “little effect” throughout. Besides, the “OG33 cell growth (cell number, manual counting)” value in test [5] is given as “only increased in SCM”. For the same compound, the “OG35 cell growth (cell number, manual counting)” value in test [6] was “increased in SCM and DM”.
As for `CC(=O)N[C@@H](CC(=O)O)C(=O)N[C@@H](CCC(=O)O)C(=O)O` [NAAG, N-acetylaspartylglutamate] (Ac-Asp-Glu-OH), the “Expression of novel 26 kDa ASPA species” value in test [1] is on record as “induced”. For the same compound, the “OG33 cell number by flow cytometric cell cycle analysis” value in test [2] was “no significant change”. In test [7], the “OG35 growth by flow cytometric cell cycle analysis (cells in G2/M and G0/G1)” value was “promoted OG35 growth”. Further, the ASPA spatial localization result in test [3] and in test [4] was “little effect” each time. Further, the “OG33 cell growth (cell number, manual counting)” value in test [5] is “only increased in SCM”. The “OG35 cell growth (cell number, manual counting)” value in test [6] is “increased in SCM and DM”.

These data come from US10765654B2, “Methods and compounds for treating cancer” (University of Vermont and State Agricultural College, priority 2011, dated 2020).
